US20240208905A1, “ABIRATERONE DERIVATIVE, PREPARATION AND APPLICATION THEREOF” (GUANGDONG ZHONGKE MEDICINE R&D LTD., priority 2021, published 2024)
Where two headings read alike, the source gives them in different places. Marks after values point to notes of the source that are not given here.

How the values were obtained:
[1] = system: human prostate cancer cell VCaP nude mouse transplanted tumor model; assay: Prostate tumor pharmacodynamics experiment: VCaP nude mouse transplanted tumor model; assay type: in vivo, BALB/c nude mice; conditions: for inhibition in vivo at 500 µmol/kg: Mus musculus, VCaP, po, 600 h, read-out: Growth Inhibition rate (GI); for Tumor volume, day 25: * P<0.05, ** P<0.01 vs solvent control
Description: Male BALB/c nude mice (number: 90; age: 6-7 weeks) purchased from Beijing Vital River Laboratory Animal Technology Co., Ltd., were raised in the SPF animal room of Suzhou Shengsu New Drug Development Co., Ltd. at a temperature of 20˜25° C. and a relative humidity 40%˜70%, and bright and dark illumination for 12 hours respectively; these mice were allowed to drink and eat freely. After normal feeding for about 6 days, mice with good physical signs can be selected for this experiment after veterinary inspection. Before grouping, animals were identified at their base of tail using marking pens. After grouping, each animal was identified by ear clipping.
Human prostate cancer cells VCaP were obtained from the Shanghai Cell Bank of the Chinese Academy of Sciences (CAS, cryopreserved in liquid nitrogen in our laboratory).
Under a culture condition of 5% CO2 and 37° C., VCaP cells were routinely cultured in DMEM medium containing 10% fetal bovine serum. Digested with 0.25% trypsin and passaged, VCaP cells were passaged 2-3 times per week based on cell growth, with a passage ratio of 1:3 to 1:5.
The VCaP cells in logarithmic growth phase were collected, counted, and resuspended in 50% DMEM basal medium and 50% Matrigel Matrix, and the cell concentration was adjust to 5×10^7 cells/mL; the cells was placed in an ice box; Cell suspension was aspirated with a 1 ml syringe, and injected subcutaneously to the anterior right armpit of nude mice. Each animal was inoculated with 200 μL (1×10^7 cells/mouse), and a VCaP transplant tumor model in nude mice was established. Regularly observe the status of mice, measure the diameter of the tumor with an electronic vernier caliper, input the data into Excel spreadsheets, calculate the tumor volume, and monitor its growth. When the tumor volume reached 100-300 mm3, 60 mice with good health and similar tumor volume were selected, and divided into 10 groups (n=6) based on the tumor volume using random block method, while ensuring that the average body weight of each group remained consistent as much as possible. The day of grouping was taken as the first day of the experiment (D1). The tumor diameters were measured twice a week after the initiation of the experiment, the tumor volumes were calculated, and the body weights of the animals were weighed and recorded at the same time.
Preparation of DMSO&PEG400&PG (v:v:v, 10:60:30): appropriate volumes of DMSO, PEG400 and PG were drawed respectively, and mixed well. The ratio of DMSO, PEG400 and PG in the mixture is 10:60:30 (v:v:v), and this mixture is used as a blank solvent and stored at room temperature.
Appropriate amount of the test compound was weighed and added into a glass bottle, appropriate volume of solvent DMSO was added, be treated with vortex ultrasonication, then appropriate volumes of PEG400 and PG were added in turn, be vortex mixed to obtain a dosing formulation with a final concentration of 0.05M. The dosing formulation was stored in refrigerator at 2-8° C. after subpackaging, and was stirred evenly with vortex before each administration. The dosing formulation was prepared every 7 days, and was subpackaged and stored in refrigerator at 4° C.
Appropriate amount of ZONK1901-10 was weighed and added into a glass bottle, appropriate volume of corn oil, was added, be treated with vortex ultrasonication evenly, a dosing formulation with a final concentration of 19.58 mg·mL-1 (0.05 M) was obtained.

[2] = system: experimental rabbit ear acne; assay: Pharmacodynamics evaluation of acne: coal tar rabbit ear acne model, HE pathology; assay type: in vivo, Japanese big-ear white rabbits; conditions: 0.01% ointment, 1 g per animal, once a day, two weeks, 10 rabbits per group; for Degree of keratinization: number of rabbits graded + / Degree of keratinization: number of rabbits graded ++ / Degree of keratinization: number of rabbits graded +++ / Degree of keratinization: number of rabbits graded −: hair follicle keratinization
Description: There are 140 male healthy Japanese big-ear white rabbits, weighing 2.0-2.5 kg. After one week of adaptive rearing, 10 rabbits were randomly selected according to their body weights as the normal control group, and the remaining 130 rabbits were coated with coal tar once a day in the area of 2×2 cm2 at 2 cm outside the opening of ear canal, with a thickness of about 0.5 mm (Before coating, the coal tar was heated to melt in a water bath, and the last coal tar shell was removed before each application; the rabbits in normal control group were coated with olive oil by the same method as before). After 3 weeks for modeling, according to the degree of skin lesion, 130 rabbits were randomly divided into 13 groups which is model control group, Example 1 compound (1 group), Example 2 compound (2 groups), Example 3 compound (3 groups), Example 4 (4 groups), Example 5 (5 groups), Example 6 (6 groups), Example 7 (7 groups), Example 8 (8 groups), Example 9 (9 groups), Example 10 (10 groups), Example 11 (11 groups), Example 12 (12 groups), Example 13 (13 groups), and each group had 10 rabbits. After grouping, each dose group were continued to be coated coal tar in the morning, and after the coal tar was removed in the afternoon, apply the test drug or control drug (both 0.01%/10 g ointment, apply 1 g ointment per animal) on the lesion, once a day, for two consecutive weeks (the model control group and the normal control group were coated with the same amount of matrix). 24 hours after the last administration, the animals were sacrificed by air embolism, and the skin (full thickness) of the ear where the administration was administered was taken, fixed with 4% paraformaldehyde solution, stained with HE, and routinely observed for pathology.1.

[3] = Pharmacokinetic experiment after intragastric administration in mice (LC-MS/MS of ZONK1901-1 and ZONK1901-2)
Description: To study the pharmacokinetic properties after intragastric administration in mice.
Each mouse was collected at 2-3 discrete points in time.
An LC-MS/MS analysis method for determining the concentrations of ZONK 1901-1 and ZONK1901-2 in mouse whole blood was established. At the same time, the obtained plasma concentration data was calculated by using the pharmacokinetic processing software Pharsight Phoenix WinNonlin8.0 non-compartmental model to calculate relevant pharmacokinetic parameters.

[4] = system: tumor model mice inoculated with Vcap (human prostate cancer cells); conditions: intraperitoneal injections, cited from earlier work
[5] = day 25, 0.5 mmol·kg−1 i.g. QD, n=6
[6] = day 25, 0.5 mmol·kg−1 i.g. QD, vs solvent control
[7] = metabolite ZONK1901-1 (M1) in mouse blood after intragastric administration of the group's compound
[8] = metabolite ZONK1901-2 (M2) in mouse blood after intragastric administration of the group's compound

C[C@]12CCC(=NOC(=O)N(CCCl)CCCl)C=C1CC[C@H]1[C@@H]2CC[C@]2(C)C(c3cccnc3)=CC[C@@H]12 [Example 3, (8S,9S,10R,13S,14S)-10,13-Dimethyl-17-(pyridin-3-yl) -6,7,8,9,10,11,12,13,14,15-decahydro-1H-cyclopenta[a]phenanthrenyl-3(2H)-one O-(bis(2-chloroethyl)carbamoyl)oxime]
inhibition in vivo at 500 µmol/kg [1]: 71.2%
Tumor volume, day 25 [1, 5]: 478 ± 64 ** mm3
degree of inflammatory cell infiltration: number of rabbits graded + [2]: 5
degree of inflammatory cell infiltration: number of rabbits graded ++ [2]: 4
degree of inflammatory cell infiltration: number of rabbits graded +++ [2]: 1
degree of inflammatory cell infiltration: number of rabbits graded − [2]: 0
Degree of keratinization: number of rabbits graded + [2]: 6
Degree of keratinization: number of rabbits graded ++ [2]: 4
Degree of keratinization: number of rabbits graded +++ [2]: 0
Degree of keratinization: number of rabbits graded − [2]: 0

CN(C)CCNC(=O)ON=C1C=C2CC[C@H]3[C@H](CC[C@]4(C)C(c5cccnc5)=CC[C@@H]34)[C@@]2(C)CC1 [Example 1, (8S,9S,10R,13S,14S)-10, 13-Dimethyl-17-(pyridin-3-yl) -6,7,8,9,10,11,12,13,14,15-decahydro-1H-cyclopenteno[a]phenanthrene-3(2H)-one O-((2-(dimethylamino)ethyl)carbamoyl)oxime]
inhibition in vivo at 500 µmol/kg [1, 6]: 82.2%
Tumor volume, day 25 [1, 5]: 384 ± 32 ** mm3
degree of inflammatory cell infiltration: number of rabbits graded + [2]: 5
degree of inflammatory cell infiltration: number of rabbits graded ++ [2]: 3
degree of inflammatory cell infiltration: number of rabbits graded +++ [2]: 2
degree of inflammatory cell infiltration: number of rabbits graded − [2]: 0
Degree of keratinization: number of rabbits graded + [2]: 6
Degree of keratinization: number of rabbits graded ++ [2]: 4
Degree of keratinization: number of rabbits graded +++ [2]: 0
Degree of keratinization: number of rabbits graded − [2]: 0

CC(=O)O[C@H]1CC[C@@]2(C)C(=CC[C@@H]3[C@@H]2CC[C@]2(C)C(c4cccnc4)=CC[C@@H]32)C1 [ZONK1901-10, abiraterone acetate, reference compound]
inhibition in vivo at 500 µmol/kg [1, 6]: 44.1%
Tumor volume, day 25 [1, 5]: 765 ± 46 * mm3
M2 (ZONK1901-2) in the metabolites ([3]; intragastric administration): not detected
Autopsy finding on absorption of the drug [4]: some of the drugs were not absorbed
Adverse findings in tumor model mice ([4]; some mice): developed abdominal distension and died

Cc1ccccc1C(=O)ON=C1C=C2CC[C@H]3[C@H](CC[C@]4(C)C(c5cccnc5)=CC[C@@H]34)[C@@]2(C)CC1 [Example 5, (8S,9S,10R,13S,14S)-10,13-Dimethyl-17-(pyridin-3-yl) -6,7,8,9,10,11,12,13,14,15-decahydro-1H-cyclopenta[a]phenanthrenyl-3(2H)-one O-(2-methylbenzoyl)oxime]
inhibition in vivo at 500 µmol/kg [1, 6]: 85.2%
Tumor volume, day 25 [1, 5]: 410 ± 44 ** mm3
degree of inflammatory cell infiltration: number of rabbits graded + [2]: 6
degree of inflammatory cell infiltration: number of rabbits graded ++ [2]: 3
degree of inflammatory cell infiltration: number of rabbits graded +++ [2]: 1
degree of inflammatory cell infiltration: number of rabbits graded − [2]: 0
Degree of keratinization: number of rabbits graded + [2]: 6
Degree of keratinization: number of rabbits graded ++ [2]: 4
Degree of keratinization: number of rabbits graded +++ [2]: 0
Degree of keratinization: number of rabbits graded − [2]: 0

CNCCC(=O)ON=C1C=C2CC[C@H]3[C@H](CC[C@]4(C)C(c5cccnc5)=CC[C@@H]34)[C@@]2(C)CC1 [Example 6, (8S,9S,10R,13S,14S)-10,13-Dimethyl-17-(pyridin-3-yl) -6,7,8,9,10,11,12,13,14,15-decahydro-1H-cyclopenta[a]phenanthrenyl-3(2H)-one O-(3-(methylamino)propionyl)oxime]
Tumor volume, Day 1 ([1]; Day 1 (day of grouping, start of dosing), 0.5 mmol·kg−1 i.g. QD, n=6): 227 ± 21^ mm3
Tumor volume, day 25 [1, 5]: 405 ± 15 * mm3
Growth Inhibition rate (GI) [1, 6]: 80.7% **
degree of inflammatory cell infiltration: number of rabbits graded + [2]: 6
degree of inflammatory cell infiltration: number of rabbits graded ++ [2]: 3
degree of inflammatory cell infiltration: number of rabbits graded +++ [2]: 1
degree of inflammatory cell infiltration: number of rabbits graded − [2]: 0
Degree of keratinization: number of rabbits graded + [2]: 5
Degree of keratinization: number of rabbits graded ++ [2]: 5
Degree of keratinization: number of rabbits graded +++ [2]: 0
Degree of keratinization: number of rabbits graded − [2]: 0
AUC0-inf [3, 7]: 2.396 µM·h
AUC0-t [3, 7]: 2.103 µM·h
Cmax [3, 7]: 679 nM
Tmax [3, 7]: 2.00 h
t1/2 [3, 7]: 2.73 h
AUC0-inf [3, 8]: 2.287 µM·h
AUC0-t [3, 8]: 2.237 µM·h
Cmax [3, 8]: 421 nM
Tmax [3, 8]: 2.00 h
t1/2 [3, 8]: 3.17 h
